Experimental data reported in patent US10086039B2, “Lamin A, an activator of longevity/anti-aging SIRT1 protein” (THE UNIVERSITY OF HONG KONG, priority 2012, dated 2018).

Legend:
Zmpste24−/− mice [1] = assay: BMSC colony-forming efficiency after in vivo treatment of Zmpste24−/− mice; design: species or system mouse; conditions: resveratrol 20 μg/ml in drinking water, four months, vs vehicle
Description: (§1) Zmpste24^−/− mice have been described previously (Pendas et al., 2002). Mouse experimentation was performed in accordance with the guidelines of the Committee on the Use of Live Animals in Teaching and Research (CULATR) at the University of Hong Kong. New-born Zmpste24^−/− mice and wild-type controls were fed with resveratrol (20 μg/ml) or N-acetyl Cysteine (1 mg/ml) in drinking water. The survival of resveratrol-treated, NAC-treated, or vehicle-treated Zmpste24^−/− mice was recorded and their body weight was monitored weekly. The trabecular bone organization and bone mineral density were determined by micro-CT. The survival rate was analyzed by Kaplan-Meier method and statistical comparison was performed by Log-rank (Mantel-Cox) Test.
Bone marrow stromal cells were isolated and cultured according to modified protocol (Enumeration and Expansion of Mouse Mesenchymal Progenitor Cells Using MESENCUILT®, Stemcell Technologies, Canada). Briefly, bone marrow cells were flushed out from femurs and tibias with α-MEM (Invitrogen, Carlsbad, Calif., USA) supplemented with 20% FBS, and plated in petri dishes. Non-adherent cells were removed on day 3 and medium was replaced every 3 days. […] Colonies containing more than 50 cells were counted. BMSC colony forming efficiency was calculated as number of colonies formed by […] bone marrow nucleated cells. […]

Zmpste24−/− mice [2] = assay: Catalase, acetyl p53 and H3K9ac levels in BMSCs isolated from treated Zmpste24−/− mice; format: in vivo, mouse; conditions: resveratrol 20 μg/ml in drinking water
Description: as §1
Western blotting was performed as described previously (Liu et al., 2005). Relative band intensity was measured by IMAGE J® and normalized to corresponding wild-type or untreated controls as indicated.
Briefly, resveratrol was supplemented at a concentration of 20 μg/ml in drinking water. Four months after treatment, BMSCs were collected for examination and comparison between resveratrol-treated and vehicle-treated Zmpste24^−/− mice.

SIRT1 = biological target: T1, SIRT1 (Homo sapiens, UniProt Q96EB6); conditions: cited from earlier work
T1 sequence (Q96EB6 1-747): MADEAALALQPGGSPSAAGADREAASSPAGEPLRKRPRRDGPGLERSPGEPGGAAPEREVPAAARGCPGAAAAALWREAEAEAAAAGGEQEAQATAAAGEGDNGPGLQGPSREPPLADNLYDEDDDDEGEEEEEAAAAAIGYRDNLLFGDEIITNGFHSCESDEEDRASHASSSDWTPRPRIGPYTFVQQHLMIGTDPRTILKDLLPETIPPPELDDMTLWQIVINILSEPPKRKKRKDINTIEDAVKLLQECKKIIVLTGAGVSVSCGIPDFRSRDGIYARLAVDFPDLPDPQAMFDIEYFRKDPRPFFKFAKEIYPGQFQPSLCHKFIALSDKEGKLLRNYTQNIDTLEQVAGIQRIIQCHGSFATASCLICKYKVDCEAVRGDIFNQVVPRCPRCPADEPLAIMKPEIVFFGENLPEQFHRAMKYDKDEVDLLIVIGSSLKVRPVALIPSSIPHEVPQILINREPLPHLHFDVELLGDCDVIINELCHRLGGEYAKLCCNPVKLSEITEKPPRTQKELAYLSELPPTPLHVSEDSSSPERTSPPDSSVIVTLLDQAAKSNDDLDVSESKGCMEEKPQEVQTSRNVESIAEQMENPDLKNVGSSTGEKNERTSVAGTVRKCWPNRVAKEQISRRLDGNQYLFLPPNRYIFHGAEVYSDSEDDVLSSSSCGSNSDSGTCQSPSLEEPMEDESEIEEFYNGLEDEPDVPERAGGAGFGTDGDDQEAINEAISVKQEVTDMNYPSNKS

[3] = biological target: T2, rhSIRT1 binding to rhLamin A (Homo sapiens, UniProt Q96EB6); assay: Pull-down of rhSIRT1 with rhLamin A in test tube (anti-lamin A immunoprecipitation); conditions: in the test tube, co-immunoprecipitation
T2 construct: purchased Diatheva, Italy (rhLamin A)
T2 sequence (Q96EB6 1-747): T1 sequence (Q96EB6 1-747)
T2 sequence (P02545 1-664 partner): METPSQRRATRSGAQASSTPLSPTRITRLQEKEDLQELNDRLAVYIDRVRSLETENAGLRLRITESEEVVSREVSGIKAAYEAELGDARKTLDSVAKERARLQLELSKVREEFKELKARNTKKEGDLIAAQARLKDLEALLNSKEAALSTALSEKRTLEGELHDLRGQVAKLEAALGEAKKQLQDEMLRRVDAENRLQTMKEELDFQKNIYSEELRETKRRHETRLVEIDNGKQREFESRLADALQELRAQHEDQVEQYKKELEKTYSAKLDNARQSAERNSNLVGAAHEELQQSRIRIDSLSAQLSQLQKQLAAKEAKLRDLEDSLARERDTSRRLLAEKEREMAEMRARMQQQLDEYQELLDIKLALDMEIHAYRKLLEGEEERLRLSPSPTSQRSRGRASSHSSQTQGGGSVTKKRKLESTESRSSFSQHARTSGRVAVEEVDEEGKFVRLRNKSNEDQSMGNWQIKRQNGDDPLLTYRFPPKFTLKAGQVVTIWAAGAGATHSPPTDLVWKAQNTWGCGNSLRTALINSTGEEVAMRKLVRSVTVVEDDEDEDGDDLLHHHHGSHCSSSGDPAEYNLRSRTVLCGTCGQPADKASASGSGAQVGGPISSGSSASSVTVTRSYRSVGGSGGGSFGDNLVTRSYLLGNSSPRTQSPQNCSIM
Description: For co-immunoprecipitation, cells were lysed into pre-chilled RIPA buffer containing 300 mM or 500 mM NaCl and protease inhibitors. Primary antibodies or appropriate control IgGs were added to the lysate and incubated for 2 h on a rocking platform at 4° C. before Agarose beads were added and incubated O/N. The beads were washed twice with RIPA buffer, resuspended into Laemmli buffer and boiled, and protein suspension was collected by centrifugation and stored for further analysis.
Consistently, ectopic EGFP-SIRT1 and DsRed-lamin A co-existed in the nuclear interior (FIG. 1D). This interaction seems specific to nuclear SIRT1 as neither cytoplasmic SIRT1 nor mitochondrial SIRT5 was detected in the anti GFP-lamin A immunoprecipitates (FIG. 6C). In addition, SIRT1 physically interacts with lamin A as recombinant human SIRT1 (rhSIRT1) was pulled down by recombinant human lamin A (rhLamin A) in a test tube (FIG. 1E).

Zmpste24−/− mice [4] = assay: Micro-CT of trabecular bone and bone mineral density in Zmpste24−/− mice; format: in vivo, mouse; conditions: resveratrol 20 μg/ml in drinking water, 4 months
Description: as §1

[5] = biological target: T3, rhSIRT1 association with NM (Homo sapiens, UniProt Q96EB6); assay: Association of rhSIRT1 with insoluble NM fraction in test tube; format: binding; conditions: NM from wild-type and Zmpste24−/− cells, resveratrol 10 μM
T3 sequence (Q96EB6 1-747): T1 sequence (Q96EB6 1-747)

## Oc1ccc(C=Cc2cc(O)cc(O)c2)cc1 [resveratrol]
Zmpste24−/− mice [1]
  BMSC colony-forming efficiency: significantly increased
Zmpste24−/− mice [2]
  level of acetyl H3K9 in BMSCs: decreased
  level of acetyl p53 in BMSCs: decreased
  level of catalase in BMSCs: enhanced
SIRT1; Beher 2009, Dai 2010, Pacholec 2010
  SIRT1 activation towards full-length native target proteins, including p53 and PGC-1α: do not confer any SIRT1 activation
SIRT1; Borra et al., 2005, Kaeberlein et al.
  SIRT1 activity towards fluorophore-conjugated synthetic peptide (Ac-Arg-His-Lys-LysAc-AMC) rather than the unmodified one: specifically enhances
[3]
  binding of rhSIRT1 to rhLamin A: enhanced the binding
Zmpste24−/− mice [4]
  bone mineral density: increased bone mineral density
  trabecular structural organization: improved the structural organization
  trabecular thickness: increased the trabecular thickness
[5]
  association of rhSIRT1 with NM: enhanced the association
